Literature values in patent publication US9399681B2, “Amatoxin-conjugates with improved linkers” (Heldelberg Pharma GmbH, priority 2010, dated 2016).

Target: DNA-dependent RNA polymerase II of mammalian cells (Homo sapiens, UniProt P24928)
Conditions: background statement, non-covalent complex; read-out: KD of the complex between amanitin and RNA-polymerase II

**Q.** With amanitin as the substance, how does the Kd read?
**A.** 3 nM
